These results are taken from ChEMBL document CHEMBL4673328, “Three bufadienolides induce cell death in the human lung cancer cell line CL1-5 mainly through autophagy” (Bioorg Med Chem Lett, 2021).

Experiment [1] in a line: Induction of cell cycle arrest in human CL1-5 cells assessed as S phase at 100 nM incubated for 24 hrs by propidium iodide staining based flow cytometry analysis (reference value: 16.85%). The class given is functional. In general terms: Flow cytometry measures light scatter and fluorescence of single cells or particles in a stream.
A short description of experiment [2]: Induction of autophagy in human CL1-5 cells assessed as fold increase in Atg7 expression level at 100 nM incubated for 24 hrs by Western blot analysis relative to control. The class given is functional. On the technique in general: In western blotting, separated proteins are transferred to a membrane and probed.
A short description of experiment [3]: Induction of autophagy in human CL1-5 cells assessed as fold increase in LC3-II expression level at 100 nM incubated for 24 hrs by Western blot analysis relative to control. The class given is functional.
Experiment [4] can be described thus: Induction of apoptosis in human CL1-5 cells assessed as viable cells at 100 nM incubated for 24 hrs by AnnexinV/FITC and propidium iodide staining based flow cytometry analysis (reference value: 94.8 %). It is filed as functional. The conditions noted are these: read-out: Activity.
Experiment [5] is described as follows: Induction of autophagy in human CL1-5 cells assessed as fold decrease in phosphorylated mTOR expression level at 100 nM incubated for 24 hrs by Western blot analysis relative to control. It is filed as functional.
Experiment [6] in a line: Induction of autophagy in human CL1-5 cells assessed as proportion of cells with degradative autophagic compartment at 100 nM incubated for 24 hrs by acridine orange staining based flow cytometry analysis (reference value: 0.34%). It is filed as functional.
The nature of experiment [7]: Induction of autophagy in human CL1-5 cells assessed as fold increase in Beclin 1 expression level at 100 nM incubated for 24 hrs by Western blot analysis relative to control. The class given is functional.
Experiment [8] in a line: Induction of autophagy in human CL1-5 cells assessed as fold increase in Atg5 expression level at 100 nM incubated for 24 hrs by Western blot analysis relative to control. The class given is functional.
Experiment [9] can be described thus: Induction of cell cycle arrest in human CL1-5 cells assessed as G2/M phase at 100 nM incubated for 24 hrs by propidium iodide staining based flow cytometry analysis (reference value: 18.04%). It is filed as functional.
Experiment [10] is described as follows: Induction of autophagy in human CL1-5 cells assessed as fold increase in mTOR expression level at 100 nM incubated for 24 hrs by Western blot analysis relative to control. It is filed as functional.
Experiment [11] is described as follows: Cytotoxicity against human CL1-5 cells assessed as reduction in cell viability incubated for 24 hrs by MTT assay. The conditions noted are these: CL1-5, 24 h. It is filed as functional, cell-based. For orientation: Tetrazolium assays rely on reduction of a dye to a coloured formazan, in cell work by metabolically active cells.
The nature of experiment [12]: Induction of autophagy in human CL1-5 cells assessed as fold change in p62 expression level at 100 nM incubated for 24 hrs in presence of early-stage autophagy inhibitor, 3-MA by Western blot analysis relative to control. The class given is functional.
Experiment [13] can be described thus: Induction of apoptosis in human CL1-5 cells assessed as late apoptotic cells at 100 nM incubated for 24 hrs by AnnexinV/FITC and propidium iodide staining based flow cytometry analysis (reference value: 2.30%). It is filed as functional.
A short description of experiment [14]: Induction of apoptosis in human CL1-5 cells assessed as early apoptotic cells at 100 nM incubated for 24 hrs by AnnexinV/FITC and propidium iodide staining based flow cytometry analysis (reference value: 2.65%). It is filed as functional.
A short description of experiment [15]: Induction of autophagy in human CL1-5 cells assessed as fold change in LC3-I expression level at 100 nM incubated for 24 hrs by Western blot analysis relative to control. It is filed as functional.
A short description of experiment [16]: Induction of cell cycle arrest in human CL1-5 cells assessed as G0/G1 phase at 100 nM incubated for 24 hrs by propidium iodide staining based flow cytometry analysis (reference value: 62.2%). The class given is functional.
A short description of experiment [17]: Induction of apoptosis in human CL1-5 cells assessed as necrotic cells at 100 nM incubated for 24 hrs by AnnexinV/FITC and propidium iodide staining based flow cytometry analysis (reference value: 0.285%). It is filed as functional.
A short description of experiment [18]: Induction of cell cycle arrest in human CL1-5 cells assessed as subG1 phase at 100 nM incubated for 24 hrs by propidium iodide staining based flow cytometry analysis (reference value: 2.28%). The class given is functional.
A short description of experiment [19]: Induction of autophagy in human CL1-5 cells assessed as fold decrease in p62 expression level at 100 nM incubated for 24 hrs by Western blot analysis relative to control. It is filed as functional.
For experiment [20], the system named is CL1-5. Put plainly: Induction of autophagy in human CL1-5 cells assessed as LC3-GFP punta formation at 100 nM incubated for 24 hrs by confocal microscopic analysis. The class given is functional, cell-based.
The nature of experiment [21]: Induction of autophagy in human CL1-5 cells assessed as fold increase in LC3-II expression level at 50 nM incubated for 24 hrs by Western blot analysis relative to control. It is filed as functional.
Experiment [22] is described as follows: Induction of autophagy in human CL1-5 cells assessed as fold increase in Atg5 expression level at 50 nM incubated for 24 hrs by Western blot analysis relative to control. The class given is functional.
The nature of experiment [23]: Induction of autophagy in human CL1-5 cells assessed as fold change in LC3-I expression level at 50 nM incubated for 24 hrs by Western blot analysis relative to control. It is filed as functional.
The subject of experiment [24] is CL1-5. Description: Induction of autophagy in human CL1-5 cells assessed as LC3-GFP punta formation at 50 nM incubated for 24 hrs by confocal microscopic analysis. It is filed as functional, cell-based.
Experiment [25] can be described thus: Induction of autophagy in human CL1-5 cells assessed as fold increase in mTOR expression level at 50 nM incubated for 24 hrs by Western blot analysis relative to control. It is filed as functional.
The nature of experiment [26]: Induction of autophagy in human CL1-5 cells assessed as fold decrease in p62 expression level at 50 nM incubated for 24 hrs by Western blot analysis relative to control. The class given is functional.
Experiment [27] is described as follows: Induction of autophagy in human CL1-5 cells assessed as fold decrease in phosphorylated mTOR expression level at 50 nM incubated for 24 hrs by Western blot analysis relative to control. The class given is functional.
The nature of experiment [28]: Induction of autophagy in human CL1-5 cells assessed as fold increase in Beclin 1 expression level at 50 nM incubated for 24 hrs by Western blot analysis relative to control. It is filed as functional.
The nature of experiment [29]: Induction of autophagy in human CL1-5 cells assessed as fold increase in Atg7 expression level at 50 nM incubated for 24 hrs by Western blot analysis relative to control. The class given is functional.

“And” between values parts separate entries of the source, which are not always exact repeats. Equal values may be shown once. The source made the active and inactive calls. The rule behind the calls is not given here.

In general, IC50 refers to the point on the concentration scale where inhibition reaches its midpoint. For `C[C@H]1C[C@H](O)[C@H](O)[C@H](O[C@H]2CC[C@]3(C=O)[C@H]4[C@H](O)C(=O)[C@]5(C)[C@@H](c6ccc(=O)oc6)CC[C@]5(O)[C@@H]4CC[C@]3(O)C2)O1`, the Activity in experiment [1] turned out to be 24.94%; in experiment [6], 14.45%; in [9], 28.04%; in experiment [13], 5.52%; in experiment [14] it was 4.72%; in [16], 43.83%. Moreover, the Activity in [17] was determined as 0.91%; in [18] it was 2.14%. The “fold change (FC)” value is on record as 1.76 in [2]; 2.55 in experiment [3]; 0.08 in [5]; 12.86 in experiment [7]; 2.77 in experiment [8]; 1.1 in experiment [10]. Further, the “fold change (FC)” value amounted to 0.56 in experiment [12], 0.93 in experiment [15] and 0.4 in experiment [19]. In addition, the viability at 0.1 µM in experiment [4] amounted to 88.8%. Further, the IC50 in experiment [11] was 0.0523 µg/mL and 90.8 nM. For the same compound, the outcome with CL1-5 [20] was Active.

In the case of `CC(=O)O[C@H]1C(=O)[C@@]2(C)[C@H]([C@H](OC(=O)c3ccccc3)[C@]3(O)C[C@H](OC(=O)[C@H](O)[C@@H](NC(=O)c4ccccc4)c4ccccc4)C(C)=C1C3(C)C)[C@]1(OC(C)=O)CO[C@@H]1C[C@@H]2O` [PACLITAXEL], in [4], the viability at 0.1 µM amounted to 72%. Besides, the values for the Activity in [14] and in [17] were 18.6% and 2.31%, respectively.

Take `CC(=O)O[C@H]1C[C@H](C)O[C@@H](O[C@H]2CC[C@]3(C=O)[C@H]4[C@H](O)C(=O)[C@]5(C)[C@@H](c6ccc(=O)oc6)CC[C@]5(O)[C@@H]4CC[C@]3(O)C2)[C@H]1O`: the Activity in experiment [1] is reported as 13.21%; in experiment [6], 12.29%; in [9], 23.65%; in experiment [13] it was 4.93%; in experiment [14], 3.53%; in experiment [16], 60.1%. In addition, the Activity in experiment [17] was determined as 0.658%; in experiment [18] it was 1.81%. The “fold change (FC)” value in [2] came out at 1.18; in experiment [3] it was 1.84; in experiment [5] it was 0.31; in experiment [7], 10.47; in experiment [8], 1.51; in experiment [10] it was 1.28. Moreover, the “fold change (FC)” value in experiment [12] came to 1.19; in experiment [15] it was 0.69; in experiment [19], 0.42. Moreover, the viability at 0.1 µM in experiment [4] stood at 90.9%. The IC50 in experiment [11] was 0.0706 µg/mL and 114 nM. Moreover, the result in the experiment on CL1-5 [20] was Active.

Turning to `C[C@@]12O[C@H]3C[C@@H](O1)[C@]1(C=O)[C@H]4[C@H](O)C(=O)[C@]5(C)[C@@H](c6ccc(=O)oc6)CC[C@]5(O)[C@@H]4CC[C@@]1(C3)O2`, the Activity was 13.2% in experiment [1]; 11.35% in [6]; 23.26% in experiment [9]; 5.88% in experiment [13]; 4.19% in experiment [14]; 60.71% in experiment [16]. The Activity in experiment [17] was 1.3%; in experiment [18], 2.25%. The “fold change (FC)” value in [2] was 1.18; in experiment [3], 2.36; in experiment [5], 0.58; in experiment [7], 3.2; in experiment [8], 2.01; in [10], 1.23. The “fold change (FC)” value was 1.02 in experiment [12], 1.03 in experiment [15] and 0.59 in experiment [19]. Besides, in experiment [4], the viability at 0.1 µM worked out at 88.6%. The IC50 in experiment [11] was 0.0767 µg/mL and 162 nM. Further, the outcome in the experiment with CL1-5 [20] was inactive.

In the case of `CO[C@H]1C[C@@H]2CC[C@@H](C)[C@@](O)(O2)C(=O)C(=O)N2CCCC[C@H]2C(=O)O[C@H]([C@H](C)C[C@@H]2CC[C@@H](O)[C@H](OC)C2)CC(=O)[C@H](C)/C=C(\C)[C@@H](O)[C@@H](OC)C(=O)[C@H](C)C[C@H](C)/C=C/C=C/C=C/1C` [SIROLIMUS], the “fold change (FC)” value is listed as 1.3 in experiment [21]; 2.17 in experiment [22]; 1.69 in [23]; 1.14 in [25]; 0.79 in experiment [26]; 0.26 in [27]. Moreover, the results for the “fold change (FC)” value in [28] and in experiment [29] were 16.57 and 1.26, respectively. In the experiment with CL1-5 [24], the result was Active.
